Assay results from publication PMC3070799 (Neuropharmacology, 2011).

Molecular target: T1, mouse 5-HT3AB (Mus musculus, UniProt P23979+Q9JHJ5)
T1 construct: expressed in transfected cells
T1 sequence (P23979 24-483 isoform P23979-2 limits assumed): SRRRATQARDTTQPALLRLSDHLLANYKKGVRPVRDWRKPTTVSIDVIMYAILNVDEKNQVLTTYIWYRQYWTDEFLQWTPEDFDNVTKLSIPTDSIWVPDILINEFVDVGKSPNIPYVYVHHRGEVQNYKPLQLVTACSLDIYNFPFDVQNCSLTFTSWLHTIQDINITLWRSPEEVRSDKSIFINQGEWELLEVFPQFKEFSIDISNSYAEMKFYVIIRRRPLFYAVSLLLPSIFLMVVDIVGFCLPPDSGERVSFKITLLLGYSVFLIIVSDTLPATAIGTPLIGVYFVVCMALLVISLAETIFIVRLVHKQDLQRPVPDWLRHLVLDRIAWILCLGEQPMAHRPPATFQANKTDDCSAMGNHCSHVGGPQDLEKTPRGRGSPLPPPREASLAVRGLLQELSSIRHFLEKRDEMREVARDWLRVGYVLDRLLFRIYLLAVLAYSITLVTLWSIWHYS
T1 sequence (Q9JHJ5 22-437): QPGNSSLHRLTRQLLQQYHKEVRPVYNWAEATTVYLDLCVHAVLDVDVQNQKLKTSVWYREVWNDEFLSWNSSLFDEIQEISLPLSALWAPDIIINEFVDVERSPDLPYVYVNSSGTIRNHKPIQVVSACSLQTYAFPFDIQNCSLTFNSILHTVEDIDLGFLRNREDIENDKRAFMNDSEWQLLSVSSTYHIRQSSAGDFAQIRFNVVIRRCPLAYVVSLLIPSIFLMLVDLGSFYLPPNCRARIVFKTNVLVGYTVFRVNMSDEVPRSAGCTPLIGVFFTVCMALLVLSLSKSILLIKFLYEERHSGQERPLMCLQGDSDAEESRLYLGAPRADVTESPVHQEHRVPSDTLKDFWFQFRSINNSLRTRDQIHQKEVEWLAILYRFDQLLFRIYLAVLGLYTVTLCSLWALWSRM
Assay: Granisetron competition binding
Description: Competition binding (8 point) was performed on at least three separate plates of transfected cells. […] Reactions were incubated for at least 1 h at 4 °C and terminated by vacuum filtration using a Brandel cell harvester onto GF/B filters pre-soaked in 0.3% polyethyleneimine. Radioactivity was determined by scintillation counting using a Beckman BCLS6500 (Fullerton, California, USA). Data were analysed by iterative curve fitting (GraphPad Prism v3.02) according to the equation:(5) BL=Bmin+Bmax−Bmin/1+10^nH(logL50−logL) where L is the concentration of ligand present; BL is the binding in the presence of ligand concentration L; Bmin is the binding when L = 0; Bmax is the binding when L = ∞, L50 is the concentration of L which gives a binding equal to (Bmax + Bmin)/2; and nH is the Hill coefficient. Results are presented as mean ± S.E.M.. Statistical analysis was performed using ANOVA in conjunction with a Dunnett’s post-hoc test.

Molecule | Displacement of granisetron (0.5 nM) (compound 2.5 mM) | Displacement of granisetron (0.5 nM) (compound 5 mM)
CC(C)(C)[C@]1(O)CC2OC(=O)CC23C(=O)OC2OC(=O)[C@H](O)C231 (stereo partly drawn) [BB, bilobalide] | not displaced | 
ginkgolide B [GB] | not displaced | 
C=C(C)[C@@H]1[C@H]2OC(=O)[C@@H]1[C@]1(O)C[C@H]3O[C@]34C(=O)O[C@H]2[C@]14C [PXN, picrotoxinin] |  | not displaced
